Results reported in patent US20200171132A1, “METHODS OF INHIBITING FUNGAL CERAMIDE SYNTHASE FOR TREATMENT OF CRYPTOCOCCUS NEOFORMANS INFECTION” (The Research Foundation for the State University of New York, priority 2017, published 2020).

Key:
human Cer1 = molecular target: T1, human Cer1 (Homo sapiens, UniProt P27544); settings: cited from earlier work
T1 sequence (P27544 1-350): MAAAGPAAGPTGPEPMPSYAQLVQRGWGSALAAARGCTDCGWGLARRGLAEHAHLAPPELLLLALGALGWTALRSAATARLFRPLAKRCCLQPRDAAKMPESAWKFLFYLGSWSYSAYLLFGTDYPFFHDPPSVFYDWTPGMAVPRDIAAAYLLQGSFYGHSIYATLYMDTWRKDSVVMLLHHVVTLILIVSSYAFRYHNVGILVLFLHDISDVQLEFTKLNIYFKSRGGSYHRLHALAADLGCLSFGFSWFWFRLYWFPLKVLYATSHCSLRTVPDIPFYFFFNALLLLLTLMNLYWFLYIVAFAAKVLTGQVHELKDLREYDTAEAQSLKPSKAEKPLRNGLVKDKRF

Cer1 = settings: cited from earlier work
Pma1 = test: Glucose dependent medium acidification (plasma membrane H+-ATPase activity); format: cell-based, Cryptococcus neoformans
Protocol: Glucose-dependent medium acidification was monitored by a modification of a procedure described previously (Perlin, Brown et al. 1988, Soteropoulos, Vaz et al. 2000). Cultures of Cn strain WT, Δcer1, Δcer1+CER1, Δgcs1 were grown to mid-log Phase in YPD. The next day, these cells were transferred to DMEM at pH 4.0 and allowed to grow under shaking conditions for 24 hours. These cells were then harvested and washed using 100 mM KCl, pH 5.0. These pellets were then resuspended in 10 ml KCl, pH 5.0 and incubated under shaking condition at 30° C. These samples were then stored at 4° C. overnight prior to use. For the assay, cells were concentrated to a final A590 of approximately 2.0. 20 μl cells along with 155 μl of bromophenolblue (50 μg/ml) in 100 mM KCl, pH 5.0. 20 μl 20% (w/v) glucose was added to initiate the reaction. Medium acidification was monitored at 590 nm over a period of 5 hours (data point every 3 mins) in a microplate reader (SpectraMax M5).

GAL7::IPC1 = test: In vitro growth at 37° C., 5% CO2, pH 4.0; format: cell-based, Cryptococcus neoformans; settings: supplementation

CCCCCC[C@@H](C)C1=C(O)C(=O)[C@@H]2[C@H](O)[C@H](C)C[C@H](O)[C@H]2[C@]1(C)C(=O)/C=C\O [Australifungin]
targets human Cer1 (human Cer1): targets human Cer1
known Cer1 inhibitor (Cer1): known Cer1 inhibitor

CCCCCCCCCCCCC/C=C/[C@@H](O)[C@H](CO)NC(=O)CCCCCCCCCCCCCCCCC [C18 ceramide]
Pma1 activity (Pma1; AbA treated Δgcs1 cells, supplementation): increases
Pma1 efficiency (Pma1; Δcer1 cells upon supplementation): increase
growth defect of GAL7::IPC1 in acidic conditions (GAL7::IPC1): compensated
